Legend:
[1] = test system: T1, CTL2-GFP (C. trachomatis L2/434/Bu, GFP-expressing); test: microbe, parasite or virus in culture; parameters: Intracellular C. trachomatis growth in HeLa cells, bulk GFP fluorescence relative to DMSO; settings: Chlamydia trachomatis, HeLa, 28.5 h; bulk GFP, mean of 2; read-out: % of control remaining
T1 construct: L2/434/Bu, GFP-expressing
Method: MICs were calculated as described above.

[2] = test system: T2, C. trachomatis L2/434/Bu expressing GFP (CTL2-GFP); test: microbe, parasite or virus in culture; parameters: C. trachomatis total inclusion area by high-content imaging, normalised to DMSO; settings: Chlamydia trachomatis, HeLa, 28.5 h; total inclusion area; read-out: % of control remaining
T2 construct: L2/434/Bu GFP intracellular growth in HeLa cells
How it was run: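 Read-out combines bulk fluorescence and imaging: GFP tracks chlamydial growth, resorufin tracks host cell viability. Plates were then fixed and Hoechst-stained so inclusions and nuclei could be imaged and counted per well.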

in vitro = test: in vitro; parameters: Viability of infected HeLa host cells, resazurin conversion, bulk resorufin fluorescence relative to DMSO; settings: human, hela cells; bulk resorufin, mean of 2

| SMILES | activity at 1 µM [1] | activity at 5 µM [1] | activity at 10 µM [1] | activity at 1 µM [2] | activity at 5 µM [2] | activity at 10 µM [2] | viability at 28.5 h, 1 µM (in vitro) | viability at 28.5 h, 5 µM (in vitro) | viability at 28.5 h, 10 µM (in vitro) |
| --- | --- | --- | --- | --- | --- | --- | --- | --- | --- |
| Cc1cc(OCC(=O)Nc2ccc(S(=O)(=O)Nc3onc(C)c3C)cc2)cc(C)c1Cl [CBK263491] | 59.3% | 15.2% | 5.2% | 55.4% | 25.5% | 11.8% | 103% | 100% | 117% |
| CN1CCCN(c2cc(C(F)(F)F)c3scc(C(=O)NCc4cccc(F)c4F)c3n2)CC1 [CBK036386T] | 124% | 97.2% | 57.7% | 69.4% | 59.6% | 46.9% | 99% | 101% | 101% |
| O=[N+]([O-])c1cccc(C(Nc2cccnc2)c2cc(Cl)c3cccnc3c2O)c1 (centres unmarked) [CBK268629] | 102% | 82% | 56.2% | 104% | 93.6% | 47.5% | 93.9% | 88.9% | 91.6% |
| CCOC(=O)c1c(C)n(-c2ccc(C)cc2)c2ccc(O)c(CN(C)C)c12 [CBK263499C] | 124% | 104% | 38.4% | 89% | 95.9% | 12.4% | 101% | 93.4% | 90.3% |
| CN(C)CCCNC(=O)Nc1cccc(-c2nc(-c3ccc(C#N)cc3)cnc2N)c1 [CBK116287] | 102% | 71.8% | 14.2% | 116% | 66.5% | 4.68% | 104% | 89.1% | 97.5% |
| O=C(NCc1cccnc1)/C(=C/c1ccc(-c2cccc(Cl)c2)o1)S(=O)(=O)c1ccccc1 [CBK264508] | 101% | 45% | 8.14% | 78.5% | 44% | 10.3% | 107% | 100% | 97.8% |
| C1=C(CCNCCc2ccccc2)c2ccccc2C12CCCC2 [CBK024723] | 137% | 49.2% | 3.86% | 112% | 42.8% | 0.759% | 96.5% | 89.8% | 97.2% |
| O=[N+]([O-])c1ccc(-n2cnc3ccccc32)c([N+](=O)[O-])c1 [CBK261120] | 104% | 40.1% | 0% | 86.4% | 46.4% | 2.35% | 107% | 88.2% | 111% |
| Cc1ccc(C(=O)NCCCN2CCC3(CC2)OCCc2c3[nH]c3ccccc23)cc1 [CBK113485] | 114% | 80% | 21.4% | 88.7% | 33.7% | 5.52% | 86.4% | 88% | 78.1% |
| O=C(c1cccs1)N1C[C@H](c2ccc(F)cc2)[C@H]2CN(Cc3ccccc3)CC[C@H]21 [CBK285544] | 93.9% | 109% | 115% | 74.8% | 78.2% | 59.8% | 93.4% | 91.7% | 95.5% |
| Cc1cc(Br)ccc1C(=O)NCCc1c[nH]c2ccc(Cl)cc12 [CBK159771] | 95.1% | 57.5% | 22.3% | 116% | 67.5% | 47.4% | 109% | 106% | 108% |
| O=S(=O)(Nc1ccc(C(F)(F)F)cc1Cl)c1cc(Br)c(Cl)s1 [CBK057196] | 142% | 108% | 69.6% | 114% | 75.1% | 57.9% | 90.4% | 93.1% | 88.2% |
| COCCCNS(=O)(=O)c1ccc(-n2ncc(Cl)c(Cl)c2=O)cc1 [CBK305039] | 78.8% | 24.5% | 21.2% | 73.2% | 2.13% |  | 97.7% | 32.2% | 0% |

— publication PMC12040169 (PLOS Biology, 2025)
